Experimental data published in patent US8952008B2, “Chemical compounds” (Pfizer Limited, priority 2012, dated 2015).

These compounds were tested against GABRA1-GABRB3-GABRG2 chloride currents in HEK cells (Homo sapiens (Human), UniProt P14867+P18507) (assay: QPatch electrophysiological recording, % enhancement of GABA current (α1 PAM)). Conditions: approximately EC10 GABA, −60 mV, whole-cell patch clamp.
Format: cell-based
Experimental: (§1) Cell suspension containing HEK cells expressing GABRA2-GABRB2-GABRG2 was placed on the QPatch instrument in serum-free medium into the instrument's cell stirrer. The instrument washed the cells once using extracellular buffer and then dispensed them into the QPlate HT measurement plate at a concentration of 3-4-e6/ml. […] All recordings were made at room temperature (22-24° C.).
(§2) Current records were acquired at 1 KHz and filtered at 0.3 KHz using the Bessel filter. Series resistance compensation was set to 80% in the QPatch software.
(§3) All compounds were dissolved in dimethyl sulfoxide to make 30 mM or 10 mM stock solutions, which were then diluted to 1000 times the desired final concentration in dimethyl sulfoxide. These were diluted into extracellular solution to attain the final concentrations desired. […] This concentration of dimethyl sulfoxide was present in all samples.
(§4) Currents were recorded at −60 mV, using an approximately EC10 concentration of gamma-aminobutyric acid (GABA). This dose of gamma-aminobutyric acid was applied for 6 seconds and washed off using extracellular buffer as an unrecorded application using the pipetting system of the QPatch instrument. The same dose of gamma-aminobutyric acid was then applied for 9 seconds, then the test compound was co-applied with this dose of gamma-aminobutyric acid for 15 seconds, and washed off using the extracellular solution using the pipetting system of the QPatch instrument.
(§5) Compound effect (% enhancement of gamma-aminobutyric acid current) was calculated using the following formula: [((peak modulator current amplitude-leak)−(GABA current amplitude-leak))/(GABA current amplitude-leak)]*100, where ‘leak’ is leak current at −60 mV, ‘peak modulator current amplitude’ is the current elicited by co-application of gamma-aminobutyric acid and test compound, and ‘GABA current amplitude’ is the current elicited by application of gamma-aminobutyric acid alone.
The ability of the compounds of the formula (I) to modulate the GABA channels expressing the al subunit (or GABRA1) can also be measured using an assay analogous to that described above but replacing the GABRA2-GABRB2-GABRG2 gene construct with the GABRA1-GABRB3-GABRG2 gene construct. All other conditions remain the same including the same cell line and conditions for cell growth.
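Wherever Ki is given: membranes from HEK cells expressing the receptor, incubated with radioligand to equilibrium, filter-bound radioactivity counted, Ki reported as geometric mean of replicate runs.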

GABRA1-GABRB3-GABRG2 chloride currents in HEK cells, sequence (P14867 28-456): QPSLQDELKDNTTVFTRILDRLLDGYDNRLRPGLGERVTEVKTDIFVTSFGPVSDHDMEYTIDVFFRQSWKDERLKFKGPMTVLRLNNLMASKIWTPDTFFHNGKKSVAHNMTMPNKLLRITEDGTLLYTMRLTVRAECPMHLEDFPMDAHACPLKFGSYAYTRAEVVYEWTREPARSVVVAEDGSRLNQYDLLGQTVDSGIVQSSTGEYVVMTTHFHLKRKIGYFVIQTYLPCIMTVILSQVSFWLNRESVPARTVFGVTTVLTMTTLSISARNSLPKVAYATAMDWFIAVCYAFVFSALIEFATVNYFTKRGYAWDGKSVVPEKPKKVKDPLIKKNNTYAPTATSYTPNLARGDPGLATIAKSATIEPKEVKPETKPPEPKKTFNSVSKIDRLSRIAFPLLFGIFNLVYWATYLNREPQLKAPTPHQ
GABRA1-GABRB3-GABRG2 chloride currents in HEK cells, sequence (P28472 26-473 partner): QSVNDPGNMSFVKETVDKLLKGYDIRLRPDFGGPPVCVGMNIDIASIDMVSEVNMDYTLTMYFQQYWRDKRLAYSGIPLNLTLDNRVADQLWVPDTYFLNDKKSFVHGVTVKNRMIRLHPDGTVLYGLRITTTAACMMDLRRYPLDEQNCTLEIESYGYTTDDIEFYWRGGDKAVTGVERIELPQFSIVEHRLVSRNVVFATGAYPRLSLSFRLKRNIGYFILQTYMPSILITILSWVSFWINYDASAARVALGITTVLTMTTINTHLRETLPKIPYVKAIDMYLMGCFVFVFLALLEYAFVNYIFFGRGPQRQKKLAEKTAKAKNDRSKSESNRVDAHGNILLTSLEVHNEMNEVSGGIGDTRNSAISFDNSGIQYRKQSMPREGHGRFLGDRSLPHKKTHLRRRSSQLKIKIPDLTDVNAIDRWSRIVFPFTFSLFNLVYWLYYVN
GABRA1-GABRB3-GABRG2 chloride currents in HEK cells, sequence (P18507 40-475): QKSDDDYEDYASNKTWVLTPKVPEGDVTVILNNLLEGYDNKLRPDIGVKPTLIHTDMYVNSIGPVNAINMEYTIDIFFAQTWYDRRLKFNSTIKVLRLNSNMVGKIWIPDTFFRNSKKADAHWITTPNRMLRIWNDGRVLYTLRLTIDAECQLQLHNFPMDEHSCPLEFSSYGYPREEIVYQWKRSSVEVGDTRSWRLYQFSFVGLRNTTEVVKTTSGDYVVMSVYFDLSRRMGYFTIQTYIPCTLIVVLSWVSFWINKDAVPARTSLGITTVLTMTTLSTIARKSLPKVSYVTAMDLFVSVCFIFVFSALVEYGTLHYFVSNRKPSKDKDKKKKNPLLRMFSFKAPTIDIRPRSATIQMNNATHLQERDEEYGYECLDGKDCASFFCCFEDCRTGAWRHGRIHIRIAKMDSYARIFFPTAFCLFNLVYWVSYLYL

| Compound | α1 PAM (%) |
| --- | --- |
| CCn1cnc2c(-c3ccc(F)c(-c4ccc(S(N)(=O)=O)cc4)c3)cnnc21 [Example 3, 5′-(7-Ethyl-7H-imidazo[4,5-c]pyridazin-4-yl)-2′-fluorobiphenyl-4-sulfonamide] | −51.1% |
| CCn1cnc2c(-c3ccc(F)c(-c4ccc(S(=O)(=O)CC)cc4OC)c3)cnnc21 [Example 4, 7-Ethyl-4-[4′-(ethylsulfonyl)-6-fluoro-2′-methoxybiphenyl-3-yl]-7H-imidazo[4,5-c]pyridazine] | 18.1% |
| CCn1cnc2c(-c3ccc(F)c(-c4ccc(S(=O)(=O)NC)cc4)c3)cnnc21 [Example 8, 5′-(7-Ethyl-7H-imidazo[4,5-c]pyridazin-4-yl)-2′-fluoro-N-methylbiphenyl-4-sulfonamide] | −55.1% |
| CCn1cnc2c(-c3ccc(F)c(-c4ccc(S(C)(=O)=O)cc4OC)c3)cnnc21 [Example 12, 7-Ethyl-4-(6-fluoro-2′-methoxy-4′-(methylsulfonyl)-[1,1′-biphenyl]-3-yl)-7H-imidazo[4,5-c]pyridazine] | 3.66% |
| CCn1cnc2c(-c3ccc(F)c(-c4ccc(S(=O)(=O)CC)cc4C(F)F)c3)cnnc21 [Example 14, 4-(2′-(Difluoromethyl)-4′-(ethylsulfonyl)-6-fluoro-[1,1′-biphenyl]-3-yl)-7-ethyl-7H-imidazo[4,5-c]pyridazine] | 13.3% |

The compounds below were run against GABRA2-GABRB2-GABRG2 chloride currents in HEK cells (Homo sapiens (Human), UniProt P18507+P47869) (assay: QPatch electrophysiological recording, % enhancement of GABA current (α2 PAM)). Conditions: approximately EC10 GABA, −60 mV, whole-cell patch clamp.
GABRA2-GABRB2-GABRG2 chloride currents in HEK cells, sequence (P47869 29-451): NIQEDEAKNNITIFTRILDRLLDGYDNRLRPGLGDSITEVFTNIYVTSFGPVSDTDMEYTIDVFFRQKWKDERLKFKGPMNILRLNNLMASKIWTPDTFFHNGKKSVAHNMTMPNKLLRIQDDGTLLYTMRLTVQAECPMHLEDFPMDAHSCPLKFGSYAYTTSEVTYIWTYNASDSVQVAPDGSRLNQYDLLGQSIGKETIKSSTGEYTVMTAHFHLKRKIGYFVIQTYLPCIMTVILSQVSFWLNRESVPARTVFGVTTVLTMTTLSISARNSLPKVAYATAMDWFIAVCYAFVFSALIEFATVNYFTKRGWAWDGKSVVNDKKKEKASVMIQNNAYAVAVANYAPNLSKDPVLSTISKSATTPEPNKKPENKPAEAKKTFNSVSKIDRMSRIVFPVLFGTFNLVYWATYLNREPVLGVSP
GABRA2-GABRB2-GABRG2 chloride currents in HEK cells, sequence (P47870 26-512 partner): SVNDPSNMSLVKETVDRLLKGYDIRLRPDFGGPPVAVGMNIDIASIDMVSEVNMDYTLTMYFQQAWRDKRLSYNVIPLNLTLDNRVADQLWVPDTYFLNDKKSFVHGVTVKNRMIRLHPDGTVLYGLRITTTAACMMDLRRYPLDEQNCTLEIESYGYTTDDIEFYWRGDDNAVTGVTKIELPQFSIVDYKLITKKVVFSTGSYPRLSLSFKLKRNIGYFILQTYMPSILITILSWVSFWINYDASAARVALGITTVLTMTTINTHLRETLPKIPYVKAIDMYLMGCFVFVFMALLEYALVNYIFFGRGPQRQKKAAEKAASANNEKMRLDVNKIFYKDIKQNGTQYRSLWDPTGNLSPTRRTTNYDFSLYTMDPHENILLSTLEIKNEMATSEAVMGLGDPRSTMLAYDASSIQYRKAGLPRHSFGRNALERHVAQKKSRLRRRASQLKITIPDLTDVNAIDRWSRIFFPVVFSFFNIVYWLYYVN
GABRA2-GABRB2-GABRG2 chloride currents in HEK cells, sequence (P18507 40-475): as the sequence (P18507 40-475) above
Format: cell-based
Experimental: Human Embryonic Kidney (HEK) cells were transfected with a GABRA2-GABRB2-GABRG2 construct using standard techniques.
For QPatch electrophysiology testing, cells were harvested from flasks by enzymatic dissociation and resuspended in serum-free medium. Cells were typically used for electrophysiological experiments within 24 to 72 hours after splitting.
as §1, §2, §3, §4, §5

| Compound | α2 PAM (%) |
| --- | --- |
| CCn1cnc2c(-c3ccc(F)c(-c4ccc(S(N)(=O)=O)cc4)c3)cnnc21 [Example 3, 5′-(7-Ethyl-7H-imidazo[4,5-c]pyridazin-4-yl)-2′-fluorobiphenyl-4-sulfonamide] | 27.6% |
| CCn1cnc2c(-c3ccc(F)c(-c4ccc(S(=O)(=O)NC)cc4)c3)cnnc21 [Example 8, 5′-(7-Ethyl-7H-imidazo[4,5-c]pyridazin-4-yl)-2′-fluoro-N-methylbiphenyl-4-sulfonamide] | 19.4% |
| CCn1cnc2c(-c3ccc(F)c(-c4ccc(S(C)(=O)=O)cc4)c3)cnnc21 [Example 9, 7-Ethyl-4-[6-fluoro-4′-(methylsulfonyl)biphenyl-3-yl]-7H-imidazo[4,5-c]pyridazine] | 38.9% |
| CCn1cnc2c(-c3ccc(F)c(-c4ccc(S(C)(=O)=O)cc4OC)c3)cnnc21 [Example 12, 7-Ethyl-4-(6-fluoro-2′-methoxy-4′-(methylsulfonyl)-[1,1′-biphenyl]-3-yl)-7H-imidazo[4,5-c]pyridazine] | 39.1% |
| CCn1cnc2c(-c3ccc(F)c(-c4ccc(S(=O)(=O)CC)cc4C(F)F)c3)cnnc21 [Example 14, 4-(2′-(Difluoromethyl)-4′-(ethylsulfonyl)-6-fluoro-[1,1′-biphenyl]-3-yl)-7-ethyl-7H-imidazo[4,5-c]pyridazine] | 58.0% |
| CCn1cnc2c(-c3ccc(F)c(-c4ccc(S(=O)(=O)CC)cc4F)c3)cnnc21 [Example 15, 4-(4′-Ethanesulfonyl-6,2′-difluoro-biphenyl-3-yl)-7-ethyl-7H-imidazo[4,5-c]pyridazine] | 39.4% |
| NS(=O)(=O)c1ccc(-c2cc(-c3cnnc4c3ncn4C3CC3)ccc2F)cc1 [Example 20, 5′-(7-Cyclopropyl-7H-imidazo[4,5-c]pyridazin-4-yl)-2′-fluoro-[1,1′-biphenyl]-4-sulfonamide] | 36.3% |
| CCn1cnc2c(-c3ccc(Cl)c(-c4ccc(S(=O)(=O)CC)cc4OC)c3)cnnc21 [Example 45, 4-(6-Chloro-4′-(ethylsulfonyl)-2′-methoxy-[1,1′-biphenyl]-3-yl)-7-ethyl-7H-imidazo[4,5-c]pyridazine] | 61.1% |
| CCn1cnc2c(-c3ccc(C#N)c(-c4ccc(S(=O)(=O)CC)cc4OC)c3)cnnc21 [Example 47, 5-(7-Ethyl-7H-imidazo[4,5-c]pyridazin-4-yl)-4′-(ethylsulfonyl)-2′-methoxy-[1,1′-biphenyl]-2-carbonitrile] | 68.7% |
| CCn1cnc2c(-c3ccc(F)c(-c4ccc(S(=O)(=O)CC)cc4)c3)cnnc21 [Example 49, 7-Ethyl-4-[4′-(ethylsulfonyl)-6-fluorobiphenyl-3-yl]-7H-imidazo[4,5-d]pyridazine] | 83.9% |

Each compound was assayed against human recombinant GABA A receptor containing the alpha2, beta2, and gamma3 subunits (Homo sapiens, UniProt P47869+Q99928) (assay: Radioligand competition binding assay with [3H]Ro-15-1788 (Flumazenil)). Conditions: not given.

| Compound | Ki |
| --- | --- |
| CCn1cnc2c(-c3ccc(F)c(-c4ccc(S(=O)(=O)C(C)C)cc4C#N)c3)cnnc21 [Example 5, 5′-(7-Ethyl-7H-imidazo[4,5-c]pyridazin-4-yl)-2′-fluoro-4-(isopropylsulfonyl)-[1,1′-biphenyl]-2-carbonitrile] | 108 nM |
| CCn1cnc2c(-c3ccc(F)c(-c4ccc(S(=O)(=O)C5CCC5)cc4OC)c3)cnnc21 [Example 6, 4-(4′-(Cyclobutylsulfonyl)-6-fluoro-2′-methoxy-[1,1-biphenyl]-3-yl)-7-ethyl-7H-imidazo[4,5-c]pyridazine] | 9.51 nM |
| CCn1cnc2c(-c3cccc(-c4ccc(S(C)(=O)=O)cc4)c3)cnnc21 [Example 16, 7-Ethyl-4-[4′-(methylsulfonyl)biphenyl-3-yl]-7H-imidazo[4,5-c]pyridazine] | 56 nM |
| CCn1cnc2c(-c3cccc(-c4ccc5c(c4)CCS5(=O)=O)c3)cnnc21 [Example 17, 4-[3-(1,1-dioxido-2,3-dihydro-1-benzothiophen-5-yl)phenyl]-7-ethyl-7H-imidazo[4,5-c]pyridazine] | 102 nM |
| CC(C)S(=O)(=O)c1ccc(-c2cc(-c3cnnc4c3ncn4C3CC3)ccc2F)c(C#N)c1 [Example 18] | 296 nM |
| NS(=O)(=O)c1ccc(-c2cc(-c3cnnc4c3ncn4C3CC3)ccc2F)cc1 [Example 20, 5′-(7-Cyclopropyl-7H-imidazo[4,5-c]pyridazin-4-yl)-2′-fluoro-[1,1′-biphenyl]-4-sulfonamide] | 19 nM |
| CCS(=O)(=O)c1ccc(-c2cc(-c3cnnc4c3ncn4C3CC3)ccc2F)c(F)c1 [Example 22, 7-Cyclopropyl-4-(4′-(ethylsulfonyl)-2′,6-difluoro-[1,1′-biphenyl]-3-yl)-7H-imidazo[4,5-c]pyridazine] | 67.8 nM |
| COc1cc(S(=O)(=O)C(C)C)ccc1-c1cc(-c2cnnc3c2ncn3C2CC2)ccc1F [Example 23, 7-Cyclopropyl-4-(6-fluoro-4′-(isopropylsulfonyl)-2′-methoxy-[1,1′-biphenyl]-3-yl)-7H-imidazo[4,5-c]pyridazine] | 40.5 nM |
| CC(C)n1cnc2c(-c3ccc(F)c(-c4ccc(S(=O)(=O)C(C)C)cc4F)c3)cnnc21 [Example 36, 4-(2′,6-Difluoro-4′-(isopropylsulfonyl)-[1,1′-biphenyl]-3-yl)-7-isopropyl-7H-imidazo[4,5-c]pyridazine] | 87.4 nM |

The remaining lines, values ahead:

| Ki | Compound |
| --- | --- |
| 147 nM | CCS(=O)(=O)c1ccc(-c2cc(-c3cnnc4c3ncn4C3CCC3)ccc2F)c(F)c1 [Example 26, 7-Cyclobutyl-4-(4′-(ethylsulfonyl)-2′,6-difluoro-[1,1′-biphenyl]-3-yl)-7H-imidazo[4,5-c]pyridazine] |
| 34.8 nM | CCS(=O)(=O)c1ccc(-c2cc(-c3cnnc4c3ncn4C3(C)CC3)ccc2F)cc1 [Example 27, 4-[4′-(Ethylsulfonyl)-6-fluorobiphenyl-3-yl]-7-(1-methylcyclopropyl)-7H-imidazo[4,5-c]pyridazine] |
| 74.3 nM | CCS(=O)(=O)c1ccc(-c2cc(-c3cnnc4c3ncn4C3CCC3)ccc2F)cc1 [Example 28, 7-Cyclobutyl-4-[4′-(ethylsulfonyl)-6-fluorobiphenyl-3-yl]-7H-imidazol[4,5-c]pyridazine] |
| 120 nM | CCCn1cnc2c(-c3ccc(F)c(-c4ccc(S(=O)(=O)CC)cc4)c3)cnnc21 [Example 30, 4-[4′-(Ethylsulfonyl)-6-fluorobiphenyl-3-yl]-7-propyl-7H-imidazo[4,5-d]pyridazine] |
| 38.8 nM | CC(C)n1cnc2c(-c3ccc(F)c(-c4ccc(S(=O)(=O)C(C)C)cc4C#N)c3)cnnc21 [Example 35, 2′-Fluoro-5′-(7-isopropyl-7H-imidazo[4,5-c]pyridazin-4-yl)-4-(isopropylsulfonyl)-[1,1′-biphenyl]-2-carbonitrile] |
| 14.4 nM | CCS(=O)(=O)c1ccc(-c2cc(-c3cnnc4c3ncn4C(C)C)ccc2F)c(Cl)c1 [Example 39, 4-(2′-Chloro-4′-(ethylsulfonyl)-6-fluoro-[1,1′-biphenyl]-3-yl)-7-isopropyl-7H-imidazo[4,5-c]pyridazine] |
| 14 nM | CCS(=O)(=O)c1ccc(-c2cc(-c3cnnc4c3ncn4C(C)C)ccc2F)c(OC)c1 [Example 40, 4-(4′-(Ethylsulfonyl)-6-fluoro-2′-methoxy-[1,1′-biphenyl]-3-yl)-7-isopropyl-7H-imidazo[4,5-c]pyridazine] |
| 118 nM | CCS(=O)(=O)c1ccc(-c2cc(-c3cnnc4c3ncn4C3CCCC3)ccc2F)c(OC)c1 [Example 43, 7-Cyclopentyl-4-(4′-(ethylsulfonyl)-6-fluoro-2′-methoxy-[1,1′-biphenyl]-3-yl)-7H-imidazo[4,5-c]pyridazine] |
| 678 nM | CCn1cnc2c(-c3ccc(OC)c(-c4ccc(S(=O)(=O)CC)cc4F)c3)cnnc21 [Example 44, 7-Ethyl-4-(4′-(ethylsulfonyl)-2′-fluoro-6-methoxy-[1,1′-biphenyl]-3-yl)-7H-imidazo[4,5-c]pyridazine] |
| 1750 nM | CCn1cnc2c(-c3ccc(OC)c(-c4ccc(S(=O)(=O)CC)cc4OC)c3)cnnc21 [Example 46, 7-Ethyl-4-(4′-(ethylsulfonyl)-2′,6-dimethoxy-[1,1′-biphenyl]-3-yl)-7H-imidazol[4,5-c]pyridazine] |

Same assay, conditions: read-out: GABA-α2 Ki; competition with [3H]Ro-15-1788; HEK cell membranes; geometric mean of at least two replicates

| Ki | Compound |
| --- | --- |
| 69.5 nM | 7-Ethyl-4-[4-fluoro-3-(2-methyl-1,1-dioxido-2,3-di hydro-1,2-benzisothiazol-5-yl)phenyl]-7H-imidazo[4,5-d]pyridazine [Example 50] |
